EC50 data for 28 molecules are collected here from patent publication US20080139558A1, “QUINOLONES USEFUL AS INDUCIBLE NITRIC OXIDE SYNTHASE INHIBITORS” (KALYPSYS, INC., priority 2006, published 2008).

SMILES strings stand for the structures. Some results are limits rather than exact numbers.

One may read the EC50 as the concentration that produces a half-maximal response. Low readings indicate a more potent agent, high ones a less potent agent.

The assay has as its target T1, human iNOS (Homo sapiens, UniProt P35228).
T1 construct: expressed in transfected cells; host or cells: HEK293
The experiment in a line: DAN assay of nitric oxide production (hiNOS). Format: cell-based. The following applies: enzyme expressed in HEK293 cells transiently transfected with human iNOS. The source says: The source of nitric oxide synthase (NOS) enzyme can be generated in several ways including induction of endogenous iNOS using cytokines and/or lipopolysaccharide (LPS) in various cell types known in the art. Alternatively, the gene encoding the enzyme can be cloned and the enzyme can be generated in cells via heterologous expression from a transient or stable expression plasmid with suitable features for protein expression as are known in the art. Enzymatic activity (nitric oxide production) is calcium independent for iNOS, while the constitutive NOS isoforms, nNOS and eNOS, become active with the addition of various cofactors added to cellular media or extract as are well known in the art. Enzymes specified in Table 1 were expressed in HEK293 cells transiently transfected with human iNOS.
A major metabolic pathway for nitric oxide is to nitrate and nitrite, which are stable metabolites within tissue culture, tissue, plasma, and urine (S Moncada, A Higgs, N Eng J Med 329, 2002 (1993)).
The level of nitrate or nitrite in the specimen can be quantified by any method known in the art which provides adequate sensitivity and reproducibility. A variety of protocols have also been described for detecting and quantifying nitrite and nitrate levels in biological fluids by ion chromatography (e.g., A Everett et al., J. Chromatogr. 706, 437 (1995); J M Monaghan et al., J. Chromatogr. 770, 143 (1997)), high-performance liquid chromatography (e.g., M Kelm et al., Cardiovasc. Res. 41, 765 (1999)), and capillary electrophoresis (MA Friedberg et al., J. Chromatogr. 781, 491 (1997)). For example, 2,3-diaminonaphthalene reacts with the nitrosonium cation that forms spontaneously from NO to form the fluorescent product 1H-naphthotriazole. Using 2,3-diaminonaphthalene (“DAN”), researchers have developed a rapid, quantitative fluorometric assay that can detect from 10 nM to 10 μM nitrite and is compatible with a multi-well microplate format. […] DAN reacts with nitrite ion and gives fluorescent naphthotriazole (MC Carré et al., Analusis 27, 835-838 (1999)). Table 1 provides the test results of various compounds of the subject invention using the DAN assay.
A specimen can be processed prior to determination of nitrate or nitrite as required by the quantification method, or in order to improve the results, or for the convenience of the investigator. For example, processing can involve centrifuging, filtering, or homogenizing the sample. If the sample is whole blood, the blood can be centrifuged to remove cells and the nitrate or nitrite assay performed on the plasma or serum fraction. If the sample is tissue, the tissue can be dispersed or homogenized by any method known in the art prior to determination of nitrate or nitrite. It may be preferable to remove cells and other debris by centrifugation or another method and to determine the nitrate or nitrite level using only the fluid portion of the sample, or the extracellular fluid fraction of the sample. The sample can also be preserved for later determination, for example by freezing of urine or plasma samples. When appropriate, additives may be introduced into the specimen to preserve or improve its characteristics for use in the nitrate or nitrite assay.
The “level” of nitrate, nitrite, or other NO-related product usually refers to the concentration (in moles per liter, micromoles per liter, or other suitable units) of nitrate or nitrite in the specimen, or in the fluid portion of the specimen. However, other units of measure can also be used to express the level of nitrate or nitrite. For example, an absolute amount (in micrograms, milligrams, nanomoles, moles, or other suitable units) can be used, particularly if the amount refers back to a constant amount (e.g., grams, kilograms, milliliters, liters, or other suitable units) of the specimens under consideration. A number of commercially available kits can be used. […]

T1 sequence (P35228 whole entry): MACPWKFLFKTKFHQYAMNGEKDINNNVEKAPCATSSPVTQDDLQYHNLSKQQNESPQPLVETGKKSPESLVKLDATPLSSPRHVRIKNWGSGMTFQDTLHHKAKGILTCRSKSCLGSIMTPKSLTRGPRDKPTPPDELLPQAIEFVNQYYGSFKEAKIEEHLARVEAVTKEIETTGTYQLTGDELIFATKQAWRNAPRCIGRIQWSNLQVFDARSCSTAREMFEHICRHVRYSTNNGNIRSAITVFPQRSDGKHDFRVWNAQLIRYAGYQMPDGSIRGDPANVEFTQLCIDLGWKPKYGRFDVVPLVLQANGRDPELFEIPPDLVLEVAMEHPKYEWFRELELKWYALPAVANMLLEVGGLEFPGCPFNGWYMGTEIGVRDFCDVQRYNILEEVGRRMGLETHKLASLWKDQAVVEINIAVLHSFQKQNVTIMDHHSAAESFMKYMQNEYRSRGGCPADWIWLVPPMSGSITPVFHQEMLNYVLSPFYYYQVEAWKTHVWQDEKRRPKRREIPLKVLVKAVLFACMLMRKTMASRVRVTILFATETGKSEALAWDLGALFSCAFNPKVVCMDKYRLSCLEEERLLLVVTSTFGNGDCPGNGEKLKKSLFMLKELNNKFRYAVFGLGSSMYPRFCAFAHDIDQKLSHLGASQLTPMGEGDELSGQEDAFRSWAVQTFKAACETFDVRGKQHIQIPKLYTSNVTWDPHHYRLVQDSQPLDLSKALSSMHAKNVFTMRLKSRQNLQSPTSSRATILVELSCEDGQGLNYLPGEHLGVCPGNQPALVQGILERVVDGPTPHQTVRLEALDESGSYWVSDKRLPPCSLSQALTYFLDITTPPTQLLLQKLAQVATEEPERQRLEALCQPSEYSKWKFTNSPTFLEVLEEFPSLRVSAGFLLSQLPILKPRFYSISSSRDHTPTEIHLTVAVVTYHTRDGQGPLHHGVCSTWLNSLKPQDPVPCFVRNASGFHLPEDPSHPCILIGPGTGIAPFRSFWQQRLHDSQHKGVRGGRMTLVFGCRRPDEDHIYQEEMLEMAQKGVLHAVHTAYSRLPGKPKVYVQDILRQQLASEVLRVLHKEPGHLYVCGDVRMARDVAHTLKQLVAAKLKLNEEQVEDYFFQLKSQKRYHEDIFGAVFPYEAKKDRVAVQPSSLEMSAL

Take `CC1CCCCN1c1nc2ccccc2n1Cc1cc(=O)[nH]c2c(F)c(F)ccc12` (racemic) [Example 206, 7,8-Difluoro-4-((2-(2-methylpiperidin-1-yl)-1H-benzo[d]imidazol-1-yl)methyl)quinolin-2(1H)-one]: the EC50 was ≤ 5 µM.
For `O=c1cc(CN2CCN(c3ccccc3F)CC2)c2ccccc2[nH]1` [Example 106, 4-((4-(2-Fluorophenyl)piperazin-1-yl)methyl)quinolin-2(1H)-one] the value was > 5 µM.
As for `Cc1noc(C)c1C(=O)N(Cc1cc(=O)[nH]c2ccccc12)c1ccccc1` [Example 30, 3,5-Dimethyl-N-((2-oxo-1,2-dihydroquinolin-4-yl)methyl)-N-phenylisoxazole-4-carboxamide], the figure is > 5 µM.
In the case of `Cc1ncsc1C(=O)N(Cc1cc(=O)[nH]c2c(F)c(F)ccc12)C(C)C` [Example 185], the EC50 was > 5 µM.
For `O=C(c1cccs1)N(Cc1cc(=O)[nH]c2ccccc12)c1ccccc1` [Example 7, N-[(2-Oxo-1,2-dihydroquinolin-4-yl)methyl]-N-phenylthiophene-2-carboxamide] the value was > 5 µM; for `Cc1ncsc1C(=O)N(Cc1cc(=O)[nH]c2ccccc12)c1ccc(F)c(F)c1` [Example 41], > 5 µM.
For `O=c1cc(Cn2c(CN3CCOCC3)nc3ccccc32)c2ccc(F)c(F)c2[nH]1` [Example 194, 7,8-Difluoro-4-((2-(morpholinomethyl)-1H-benzo[d]imidazol-1-yl)methyl)quinolin-2(1H)-one] the value was > 5 µM.
For `Cc1ccc(C)c(-c2nc3ccccc3n2Cc2cc(=O)[nH]c3c(F)c(F)ccc23)c1` [Example 243, 4-((2-(2,5-Dimethylphenyl)-1H-benzo[d]imidazol-1-yl)methyl)-7,8-difluoroquinolin-2(1H)-one] the value was > 5 µM.
With `CN(Cc1cc(=O)[nH]c2ccccc12)c1ccccc1` [Example 15, 4-[(Methyl-phenyl-amino)-methyl]-1H-quinolin-2-one], the EC50 was ≤ 5 µM.
For `Cc1ncsc1C(=O)N(Cc1c(F)c(=O)[nH]c2c(F)c(F)ccc12)c1cccc(Cl)c1` [Example 115, N-(3-Chlorophenyl)-4-methyl-N-((3,7,8-trifluoro-2-oxo-1,2-dihydroquinolin-4-yl)methyl)thiazole-5-carboxamide] the value was ≤ 5 µM.
Regarding `Cc1ccc(C(=O)N(Cc2cc(=O)[nH]c3c(F)cccc23)c2cccc(Cl)c2)cc1` [Example 59, N-(3-Chlorophenyl)-N-((8-fluoro-2-oxo-1,2-dihydroquinolin-4-yl)methyl)-4-methylbenzamide], the EC50 is > 5 µM.
For `Cc1ncsc1C(=O)N(Cc1cc(=O)[nH]c2c(F)c(F)ccc12)c1ccccc1F` [Example 90, N-(2-Fluorophenyl)-N-((7,8-fluoro-2-oxo-1,2-dihydroquinolin-4-yl)methyl)-4-methylthiazole-5-carboxamide] the value was ≤ 5 µM.
For `Cc1ncsc1C(=O)N(Cc1cc(=O)[nH]c2c(F)c(F)ccc12)c1cc(Cl)ccc1F` [Example 88, N-(3-Chloro-6-fluorophenyl)-N-((7,8-fluoro-2-oxo-1,2-dihydroquinolin-4-yl)methyl)-4-methylthiazole-5-carboxamide], the EC50 was ≤ 5 µM.
For `O=C(c1ccccn1)N(Cc1cc(=O)[nH]c2ccccc12)c1ccccc1` [Example 32, N-((2-Oxo-1,2-dihydroquinolin-4-yl)methyl)-N-phenylpicolinamide] the value was > 5 µM; for `CC(C)c1nc2cc(F)c(F)cc2n1Cc1cc(=O)[nH]c2c(F)c(F)ccc12` [Example 229, 7,8-Difluoro-4-((5,6-difluoro-2-isopropyl-1H-benzo[d]imidazol-1-yl)methyl)quinolin-2(1H)-one], > 5 µM.
As for `Cc1nc(N2CCN(C)CC2)sc1C(=O)N(Cc1cc(=O)[nH]c2ccccc12)c1ccccc1` [Example 102, 4-Methyl-2-(4-methylpiperazin-1-yl)-N-((2-oxo-1,2-dihydroquinolin-4-yl)methyl)-N-phenylthiazole-5-carboxamide], the figure is > 5 µM; as for `Cc1ncsc1C(=O)N(Cc1cc(=O)[nH]c2c(F)ccc(C)c12)c1cccc(Cl)c1` [Example 50, N-(3-Chlorophenyl)-N-((8-fluoro-5-methyl-2-oxo-1,2-dihydroquinolin-4-yl)methyl)-4-methylthiazole-5-carboxamide], > 5 µM; as for `Cc1ncsc1C(=O)N(Cc1cc(=O)[nH]c2c(F)c(F)ccc12)c1cc(F)cc(F)c1` [Example 178, N-(3,5-Difluorophenyl)-N-((7,8-fluoro-2-oxo-1,2-dihydroquinolin-4-yl)methyl)-4-methylthiazole-5-carboxamide], ≤ 5 µM.
With `O=C1CCN(c2ccccc2)N1Cc1cc(=O)[nH]c2c(F)c(F)ccc12` [Example 252, 7,8-Difluoro-4-((5-oxo-2-phenylpyrazolidin-1-yl)methyl)quinolin-2(1H)-one], the EC50 was ≤ 5 µM.
`Cc1ncsc1C(=O)N(c1cccc(Cl)c1)C(C)c1cc(=O)[nH]c2c(F)cccc12` (racemic) [Example 113, N-(3-Chlorophenyl)-N-(1-(8-fluoro-2-oxo-1,2-dihydroquinolin-4-yl)ethyl)-4-methylthiazole-5-carboxamide]: the EC50 is ≤ 5 µM.
As for `O=c1cc(Cn2c(-c3cncs3)nc3ccccc32)c2ccc(F)c(F)c2[nH]1` [Example 191, 7,8-Difluoro-4-((2-(thiazol-5-yl)-1H-benzo[d]imidazol-1-yl)methyl)quinolin-2(1H)-one], the figure is ≤ 5 µM; as for `Cc1ncsc1C(=O)N(Cc1cc(=O)[nH]c2c(F)c(F)ccc12)c1ccc(F)c(Cl)c1` [Example 181, N-(3-Chloro-4-fluorophenyl)-N-((7,8-fluoro-2-oxo-1,2-dihydroquinolin-4-yl)methyl)-4-methylthiazole-5-carboxamide], ≤ 5 µM; as for `Cc1ncsc1CN(C(=O)c1cc(=O)[nH]c2c(F)cccc12)c1ccc(F)c(Cl)c1` [Example 104, N-(3-Chloro-4-fluorophenyl)-8-fluoro-N-((4-methylthiazol-5-yl)methyl)-2-oxo-1,2-dihydroquinoline-4-carboxamide], > 5 µM.
For `Cc1nc(S(=O)(=O)N(Cc2cc(=O)[nH]c3c(F)c(F)ccc23)c2cccc(Cl)c2)cn1C` [Example 265, N-(3-Chlorophenyl)-N-((7,8-difluoro-2-oxo-1,2-dihydroquinolin-4-yl)methyl)-1,2-dimethyl-1H-imidazole-4-sulfonamide], the EC50 was ≤ 5 µM.
For `O=C(c1nnc[nH]1)N(Cc1cc(=O)[nH]c2c(F)c(F)ccc12)c1cccc(Cl)c1` [Example 168, N-(3-Chlorophenyl)-N-[(7,8-difluoro-2-oxo-1,2-dihydroquinolin-4-yl)methyl]-4H-1,2,4-triazole-3-carboxamide] the value was ≤ 5 µM; for `Cc1ncsc1C(=O)N(Cc1cc(=O)[nH]c2c(F)cccc12)c1ccccc1` [Example 97, N-Phenyl-N-((8-fluoro-2-oxo-1,2-dihydroquinolin-4-yl)methyl)-4-methylthiazole-5-carboxamide], ≤ 5 µM; for `CC(C)(C)OC(=O)N1CCC(c2nc3ccccc3n2Cc2cc(=O)[nH]c3c(F)c(F)ccc23)CC1` [Example 205, tert-Butyl 4-(1-((7,8-difluoro-2-oxo-1,2-dihydroquinolin-4-yl)methyl)-1H-benzo[d]imidazol-2-yl)piperidine-1-carboxylate], > 5 µM.
Take `Cc1ncsc1CN(Cc1cc(=O)[nH]c2c(F)cccc12)c1cccc(Cl)c1` [Example 45, 4-(((3-Chlorophenyl)((4-methylthiazol-5-yl)methyl)amino)methyl)-8-fluoroquinolin-2(1H)-one]: the EC50 was ≤ 5 µM.
